Legend:
[1] = 13C polarisation obtained by the DNP method, assessed with 13C-NMR; assay type: physicochemical; settings: 1.2 K, 3.35 T
Experimental: A 20 mM solution was prepared by dissolving 5.0 mg of the radical of Example 1 in ^13CI-pyruvic acid (164 μl). The sample was mixed to homogeneity and an aliquot of the solution (41 mg) was placed in a sample cup and inserted in the DNP polariser.
The sample was polarised under DNP conditions at 1.2 K in a 3.35 T magnetic field under irradiation with microwave (93.950 GHz). After 2 hours the polarisation was stopped and the sample was dissolved using a dissolution device according to WO-A-02/37132 in an aqueous solution of sodium hydroxide and tris(hydroxymethyl)aminomethane (TRIS) to provide a neutral solution of hyperpolarised sodium ^13C1-pyruvate. The dissolved sample was rapidly analysed with ^13C-NMR to assess the polarisation and a 19.0% ^13C polarisation was obtained.
A 15 mM solution was prepared by dissolving the radical of Example 1 (209.1 mg) in a mixture of ^13C1-pyruvic acid (553 mg) and unlabelled pyruvic acid (10.505 g). The sample was mixed to homogeneity and an aliquot of the solution (2.015 g) was placed in a sample cup and inserted in the DNP polariser.
The sample was polarised under DNP conditions at 1.2 K in a 3.35 T magnetic field under irradiation with microwave (93.950 GHz). […] The filtered solution was rapidly analysed with ^13C-NMR to assess the polarisation, 16.5% ^13C polarisation was obtained. The residual radical concentration was subsequently analysed with a UV spectrophotometer meter at 469 nm and was determined to be below the detection limit of 0.1 μM.
A 20 mM solution was prepared by dissolving Tris(8-carboxy-2,2,6,6-tetra(hydroxyethoxy)methyl-benzo[1,2-d:4,5-d′]-bis-(1,3)-dithiole-4-yl)methyl sodium salt in ^13C1-pyruvic acid (83.1 mg). […] The DNP enhancement was calculated from a measurement of the thermal equilibrium ^13C-NMR signal and the enhanced NMR signal. […]

[2] = T1 relaxation of 13C-pyruvate in human full blood; assay type: physicochemical; settings: human full blood at 37° C.
Text: The amount of alanine, bicarbonate and lactate is dependent on the metabolic status of the myocardial tissue under investigation.

myocardial tissue = assay: Cardiac 13C-MR imaging in the pig before and after occlusion of the circumflexa; assay type: in vivo; settings: 0.22 mmol/kg i.v., imaging 30 s after start of injection
Experimental: The pig (25 kg) was anaesthetised using a cocktail containing isotonic NaCl (26 vol %), Ketalar (50 mg/ml) (Pfizer AB) (42 vol %), Norcuron (10 mg+5 ml sterile water) (Organon) (21 vol %) and Midazolam (5 mg/ml) (Pharma Hameln) (11% vol) administered using an infusion pump at a rate of 0.6 ml/min.
After the first injection with ^13C-pyruvate the pig was removed from the MR scanner. Under X-ray guidance, a balloon catheter was inserted into the arteria coronaria sinistra and the circumflexa was blocked for a 15 minute period. During the whole operation ECG and blood pressure were measured. 90 Minutes after the end of the ischemic period, the pig was imaged again and ^13C-images were acquired from (about) the same location as were the control measurement was carried out.
The pig was positioned in a pig MR coil (Rapid Biomedical, Germany) and imaged using a standard clinical cardiac proton MR imaging sequence library to get anatomical information and to get the short axis view orientation of the myocardium (see proton reference image in the figures to see an example of short axis view).
Based on the proton frequency found by the MR system the MR frequency for ^13C1-alanine was calculated according to the following equation: Frequency ^13C1-alanine=0.25144×[(system frequency proton×1.00021)−0.000397708]
The frequency calculated positioned the MR signal arising from ^13C1-alanine on resonance with ^13C1-lactate on the left and ^13C1-pyruvate and ^13C1-bicarbonate resonating on the right of ^13C1-alanine. An unlocalised MR spectroscopy sequence was run to ensure that the ^13C-MR coil and the system MR frequency had been set up correctly. The ^13C-image location was positioned to cover the myocardium (short axis view) (slice thickness 20 mm, in plane pixel size 7.5×7.5 mm^2). In the reconstruction phase, the image data was zero-filled to result in 3.75×3.75×20 mm^3 resolution. 16 ml of ^13C1-pyruvate (327 mM) was injected (0.22 mmol/kg) during a period of 12 s (1.3 ml/s) i.v. into the front leg and 30 s after the start of the injection (i.e. 18 s after finishing the injection), the chemical shift ^13C-MR sequence was started.
In the reconstruction phase, the matrix was zero-filled to 32×32, a mathematical operation that helps to improve the spatial resolution. The dataset was analysed on the MRI scanner with software provided by the manufacturer. The results are metabolic images for ^13C-pyruvate, ^13C-alanine, ^13C-lactate and ^13C-bicarbonate.

[3] = 90 minutes after 15 minute occlusion of the circumflexa
[4] = before vs 90 minutes after 15 minute occlusion

Row | 13C polarisation ([1]; Example 4: 20 mM tris(8-carboxy-2,2,6,6-tetra(hydroxyethoxy)methyl-benzo-bis-dithiole-4-yl)methyl sodium salt, calculated from thermal equilibrium and enhanced NMR signal) | T1 relaxation [2] | 13C polarisation ([1]; Example 2: 20 mM radical of Example 1 in 13C1-pyruvic acid, 93.950 GHz, 2 hours, dissolved in NaOH/TRIS, liquid 13C-NMR) | 13C polarisation ([1]; Example 3: 15 mM radical of Example 1, 4 hours, dissolved in NaOH/TRIS, 0.5 M pyruvate, radical removed on C18 column, filtered solution) | SMILES | 13C-bicarbonate signal in myocardial tissue at risk (compared to the control) (myocardial tissue; [3]) | 13C-lactate signal in myocardial tissue at risk (myocardial tissue; [3]) | 13C-alanine image before and after the ischemic period (myocardial tissue; [4]) | 13C-pyruvate image before and after the ischemic period (myocardial tissue; [4])
1 | 16% | – | – | – | CC(=O)[13C](=O)O [^13C1-pyruvic acid] | – | – | – | –
2 | – | about 42 s | 19.0% | 16.5% | CC(=O)C(=O)O [^13C-pyruvate, sodium ^13C1-pyruvate] | strongly reduced | positive contrast | No difference | No difference

Source: US8980224B2, “Method of cardiac imaging” (GE Healthcare AS, priority 2004, dated 2015)
